Test systems include CAKI-1 renal; M14 melanoma; A498 renal; HS 578T breast; HT29 colon; DU-145 prostate; HCT-116 colon; PC-3 prostate; A549 NSCLC; TK-10 renal.
Common to all, as to experiment: NCI tumour cell line growth inhibition, 48 h

Molecules are shown by their SMILES.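 How tested: cells in 96-well plates exposed to compound for 48 hours at five concentrations. GI50: concentration for 50% inhibition of growth. TGI: concentration producing complete growth inhibition.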 Some results are limits rather than exact numbers.

On to `C(=C\c1ccc(OCC2CO2)cc1)/C1=NCOC1` (stereo not given), for which the GI50 is 16300 nM with CAKI-1 renal; 14500 nM in the assay on M14 melanoma; 21900 nM in the assay on A498 renal; 16 µM with HS 578T breast; 6730 nM with HT29 colon; 9.82 µM in the assay on DU-145 prostate. Further, the GI50 in the assay with HCT-116 colon was 7010 nM; in the assay with PC-3 prostate, 13200 nM; with A549 NSCLC it was 7510 nM; in the assay with TK-10 renal, 16.2 µM. The TGI in the assay with CAKI-1 renal was determined as 40.8 µM; in the assay on M14 melanoma it was 88.5 µM; in the assay on A498 renal it was 43.2 µM; in the assay on HS 578T breast, 54.2 µM; with HT29 colon, 25.8 µM; in the assay with DU-145 prostate, 29.2 µM. For the same molecule, the TGI in the assay on HCT-116 colon was 24.1 µM; in the assay with PC-3 prostate, 28 µM; in the assay on A549 NSCLC, 39.1 µM; with TK-10 renal it was 39.2 µM.

Take `COc1ccc2nc3ccccc3c(NCc3ccccc3)c2c1`: the GI50 with CAKI-1 renal is 1940 nM; in the assay with M14 melanoma, 1730 nM; in the assay on A498 renal, 1700 nM; with HS 578T breast, 2.19 µM; with HT29 colon it was 1800 nM; in the assay with DU-145 prostate, 3.18 µM. Further, the GI50 was 1720 nM in the assay on HCT-116 colon, 2350 nM with PC-3 prostate, 1870 nM in the assay with A549 NSCLC and 3.79 µM in the assay on TK-10 renal. Also, the TGI in the assay with CAKI-1 renal was found to be 6.82 µM; with M14 melanoma, 3.58 µM; in the assay with A498 renal it was 3.15 µM; with HS 578T breast, 5.57 µM; with HT29 colon it was 6.23 µM; with DU-145 prostate, 10.3 µM. Moreover, the TGI was determined as 5.25 µM in the assay on HCT-116 colon, 7.39 µM in the assay with PC-3 prostate, 4.19 µM in the assay with A549 NSCLC and 13.1 µM in the assay on TK-10 renal.

As to `OCC1OC(n2cnc3c(NCc4ccco4)ncnc32)C(O)C1O` (stereo not given), the GI50 in the assay on CAKI-1 renal was 369 nM; with M14 melanoma it was 2440 nM; in the assay on A498 renal, 1590 nM; in the assay on HS 578T breast, 3.38 µM; in the assay on HT29 colon it was 2100 nM; in the assay with DU-145 prostate, 1.27 µM. Besides, the GI50 in the assay on HCT-116 colon was 338 nM; with PC-3 prostate, 1330 nM; in the assay on A549 NSCLC it was 2600 nM; with TK-10 renal, 3.18 µM. In addition, the TGI in the assay with CAKI-1 renal was 4.33 µM; in the assay on M14 melanoma, 17.2 µM; in the assay on A498 renal, 5.5 µM; in the assay with HS 578T breast, more than 100 µM; in the assay on HT29 colon it was more than 38 µM; in the assay with DU-145 prostate, 4.14 µM. Further, the TGI in the assay on HCT-116 colon was 1.59 µM; in the assay on PC-3 prostate, 19.1 µM; in the assay with A549 NSCLC, 36.9 µM; in the assay on TK-10 renal it was more than 63.7 µM.

In the case of `Cc1nn(-c2ccccc2)c2nc(C)n(-c3ccc(Br)cc3)c(=O)c12`, the GI50 with CAKI-1 renal is 416 nM; with M14 melanoma it was 429 nM; in the assay on A498 renal it was 219 nM; in the assay with HS 578T breast, 0.371 µM; with HT29 colon, 355 nM; with DU-145 prostate, 1.44 µM. Besides, the GI50 in the assay on HCT-116 colon is 425 nM; with PC-3 prostate, 475 nM; in the assay with A549 NSCLC, 927 nM; in the assay on TK-10 renal it was 5.53 µM. In addition, the TGI in the assay on CAKI-1 renal is more than 100 µM; with M14 melanoma it was more than 100 µM; with A498 renal, 0.816 µM; with HS 578T breast it was more than 100 µM; with HT29 colon, more than 31.6 µM; in the assay with DU-145 prostate, more than 100 µM. The TGI was more than 65.4 µM in the assay with HCT-116 colon, more than 100 µM in the assay with PC-3 prostate, more than 100 µM in the assay on A549 NSCLC and more than 100 µM in the assay with TK-10 renal.

`COc1cc(NCCC2CCCCN2)c2ncccc2c1OC` (stereo not given): the GI50 with CAKI-1 renal is 9560 nM; in the assay on M14 melanoma, 16500 nM; in the assay on A498 renal it was 22600 nM; in the assay with HS 578T breast, 4.34 µM; in the assay on HT29 colon, 13000 nM; in the assay with DU-145 prostate, 13.1 µM. Besides, the GI50 was 1940 nM in the assay with HCT-116 colon, 18100 nM in the assay with PC-3 prostate, 19400 nM in the assay with A549 NSCLC and 22.1 µM in the assay with TK-10 renal. The TGI in the assay on CAKI-1 renal came out at 30.2 µM; in the assay with M14 melanoma it was 36.3 µM; in the assay on A498 renal, 41.8 µM; in the assay on HS 578T breast it was 31.1 µM; with HT29 colon it was 33.6 µM; in the assay on DU-145 prostate, 26.9 µM. For the same molecule, the TGI in the assay with HCT-116 colon turned out to be 3.7 µM; with PC-3 prostate, 72 µM; in the assay on A549 NSCLC, 41.9 µM; in the assay on TK-10 renal, 39.7 µM.

As for `CCOC(=O)c1ccc(NC(=O)c2cccc(NC3=C(Cl)C(=O)N(Cc4ccccc4)C3=O)c2)cc1`, the GI50 with CAKI-1 renal is more than 100000 nM; with M14 melanoma, more than 100000 nM; in the assay on A498 renal it was more than 100000 nM; in the assay with HS 578T breast, more than 100 µM; with HT29 colon it was more than 100000 nM; in the assay with DU-145 prostate it was more than 100 µM. Also, the GI50 in the assay on HCT-116 colon is more than 100000 nM; in the assay on PC-3 prostate, more than 100000 nM; with A549 NSCLC, more than 100000 nM; with TK-10 renal, more than 100 µM. The TGI in the assay with CAKI-1 renal, in the assay on M14 melanoma, in the assay on A498 renal, in the assay with HS 578T breast, in the assay on HT29 colon and in the assay on DU-145 prostate was more than 100 µM each time. For the same molecule, the TGI in the assay with HCT-116 colon, in the assay with PC-3 prostate, in the assay on A549 NSCLC and with TK-10 renal was more than 100 µM in each case.

For the molecule `CCC(C(=O)[C@@H](C)[C@@H](O)[C@H](C)[C@@H]1O[C@@H]([C@@H](CC)C(=O)ONC(=O)c2ccccc2)CC[C@@H]1C)[C@H]1O[C@]2(C=CC(=O)[C@]3(CC[C@@](C)([C@H]4CC[C@](O)(CC)[C@H](C)O4)O3)O2)[C@H](C)C[C@@H]1C` (stereo not given in full), the GI50 with CAKI-1 renal is 1010 nM; in the assay with M14 melanoma, 1320 nM; in the assay with A498 renal, 85.1 nM; with HS 578T breast, 0.0991 µM; in the assay on HT29 colon it was 387 nM; in the assay with DU-145 prostate it was 0.511 µM. Moreover, the GI50 in the assay with HCT-116 colon is 360 nM; in the assay on PC-3 prostate, 77.5 nM; in the assay with A549 NSCLC it was 168 nM; in the assay with TK-10 renal, 1.1 µM. The TGI was 2.71 µM with CAKI-1 renal; 7.5 µM with M14 melanoma; 0.731 µM in the assay with A498 renal; 2.58 µM in the assay with HS 578T breast; 2.1 µM with HT29 colon; 1.98 µM in the assay with DU-145 prostate. The TGI in the assay with HCT-116 colon came out at 1.91 µM; with PC-3 prostate it was 1.99 µM; in the assay on A549 NSCLC, 1.63 µM; in the assay on TK-10 renal, 2.44 µM.

Values taken from PubChem BioAssay (NCI).
